Activity calls are given as the source filed them. The calls are words filed in the database; no cut-off is given here.

Series [1] concerns Mus musculus. Briefly: Antinociceptive activity in Swiss Webster mouse model of formalin-induced biphasic nociceptive response assessed as reduction in pain during early phase at 5 mg/kg, ip administered 40 mins before formalin injection and measured after 10 mins post formalin challenge. It counts as functional, organism-based. To be noted: time 50.0 min.
Series [2] deals with Mus musculus. Briefly: Antinociceptive activity in Swiss Webster mouse model of formalin-induced biphasic nociceptive response assessed as reduction in pain during late phase at 5 mg/kg, ip administered 40 mins before formalin injection and measured after 10 to 30 mins post formalin challenge. It counts as functional, organism-based. To be noted: time 50-70 min.
Series [3] relates to Mus musculus. Briefly: Antinociceptive activity in Swiss Webster mouse model of formalin-induced biphasic nociceptive response assessed as reduction in pain during early phase at 12.5 to 50 mg/kg, ip administered 40 mins before formalin injection and measured after 10 mins post formalin challenge. In kind it is functional, organism-based. To be noted: dose 12.5-50 mg/kg, time 50.0 min.

Series [4] concerns J774. Briefly: Cytotoxicity against LPS and IFN-gamma stimulated mouse J774 cells at 0.39 to 25 uM incubated for 72 hrs by alamar blue dye based colorimetric plate analysis. It counts as cell-based. To be noted: j774, 72 h, dose 0.39-25 µM.
Series [5] relates to Mus musculus. Briefly: Antiinflammatory activity in ip dosed Swiss Webster mouse model of complete freund's adjuvant-induced paw edema assessed as reduction in paw edema when administered 40 mins before CFA injection by plethysmometer analysis. In kind it is functional, organism-based. To be noted: dose 12.5-50 mg/kg.
For series [6], the system named is J774. Briefly: Antiinflammatory activity against mouse J774 cells assessed as inhibition of LPS/IFNgamma-stimulated NO production at 0.097 to 1.56 uM incubated for 24 hrs bu Griess reagent based assay. It counts as functional, cell-based. The following applies: dose 0.097-1.56 µM.
For series [7], the system named is Mus musculus. Briefly: Antinociceptive activity in ip dosed Swiss Webster mouse model of formalin-induced biphasic nociceptive response assessed as reduction in pain during late phase when administered 40 mins before formalin injection and measured after 10 to 30 mins post formalin challenge. It counts as functional, organism-based. The following applies: dose 12.5-50 mg/kg, time 50-70 min.

Series [8] relates to Mus musculus. Briefly: Effect on motor performance in Swiss Webster mouse assessed as effect on relaxing or motor deficit at 100 mg/kg, ip measured up to 120 sec by rotarod test. In kind it is ADME, organism-based. The following applies: in vivo, 2 min.
In series [9] the test system is Mus musculus. Briefly: Antiinflammatory activity in Swiss Webster mouse model of complete freund's adjuvant-induced paw edema assessed as reduction in paw edema at 2 mg/kg, ip administered 40 mins before CFA injection by plethysmometer analysis. It counts as functional, organism-based.

Take `COc1ccc2c(c1)c(CC(=O)O)c(C)n2C(=O)c1ccc(Cl)cc1`: the result in the series with Mus musculus [1] was inactive. Besides, the outcome with Mus musculus [2] was Active.

With `CC(C)=CCC1(CC=C(C)C)C(=O)c2c(CC(C)C)cc(=O)oc2C(C(=O)CC(C)C)=C1O`, the Activity result in the series on Mus musculus [3] is “Dose-dependent effect”; in the series with J774 [4] it was “Non-Toxic”; in the series with Mus musculus [5] it was “Dose-dependent effect”; in the series on Mus musculus [8] it was “Non-Toxic”. The inhibition result with J774 [6] was “Active”. The result in the series on Mus musculus [7] was inactive.

Consider `CN1CC[C@]23c4c5ccc(O)c4O[C@H]2[C@@H](O)C=C[C@H]3[C@H]1C5`, for which the outcome with Mus musculus [1] and in the series on Mus musculus [2] was Active.

As for `C[C@@H]1C[C@H]2[C@@H]3CCC4=CC(=O)C=C[C@]4(C)[C@@]3(F)[C@@H](O)C[C@]2(C)[C@@]1(O)C(=O)CO`, the result in the series on Mus musculus [9] was Active.

The values are drawn from ChEMBL document CHEMBL5055632, “Anti-Inflammatory and Antinociceptive Properties of Kielmeyerone A, a Chromenone Isolated from the Roots of Kielmeyera reticulata” (J Nat Prod, 2021).
